From patent US6740645B1, “17β-acyl-17α-propynyl-11β-(cyclic amino) aryl steroids and their derivatives having antagonist hormonal properties” (Research Triangle Institute, priority 1999, dated 2004)

Tested on: rabbit uterus
Assay: anti-McGinty test for antiprogestational activity (McPhail Index)
Format: in vivo
Conditions: for McPhail Index: estrogen-primed immature female rabbits, n = 3
Experimental: Biological activity was examined by means of the anti-McGinty test for antiprogestational activity. Immature female rabbits weighing 1000 to 1100 grams were primed with estrogen (5 μg of estradiol in sesame oil as vehicle, given subcutaneously) for 6 days, followed by a surgical procedure to introduce the test compounds into the uterine horn [see for example Teruhiko Tamaya, et al., Local progestational and antiprogestational effects of steroids and their metabolites on the rabbit uterus. Japanese Journal of Fertility and Sterility 24:48-51 (1979)]. A single dose of test compound in sesame oil as vehicle, accompanied by a single dose of progesterone (0.3 μg in sesame oil as vehicle) was given. On the third day (dosing being day one) the animals were sacrificed. The uteri were then removed, weighed and a section was kept in 10% formalin for microslide preparation for McPhail Index [M. K. McPhail, The Journal of Physiology, 83: 10 (1934)] determination. […] Antiprogestational compounds should block the effect of progesterone on the McPhail Index, which is zero in the absence of progesterone.

[1] = total dose 0.3 (μg) of test compound + progesterone 0.3 μg, single dose into uterine horn
[2] = total dose 3 of test compound + progesterone 0.3 μg, single dose into uterine horn
[3] = total dose 30 of test compound + progesterone 0.3 μg, single dose into uterine horn

Compound | McPhail Index (progesterone (P) alone, total dose 0.3 (μg), uterine horn) | McPhail Index [1] | McPhail Index [2] | McPhail Index [3] | antiprogestational effect (in words) (0.3 μg dose, anti-McGinty test) | antiprogestational potency compared with RTI-6617-048 and RTI-6617-040 (in words) (anti-McGinty test, Table 1)
CC(=O)[C@H]1CC[C@H]2[C@@H]3CCC4=CC(=O)CC[C@]4(C)[C@H]3CC[C@]12C [Progesterone, progesterone] | 2.2 +/− 0.3 |  |  |  |  | 
CC#C[C@]1(C(C)=O)CC[C@H]2[C@@H]3CCC4=CC(=O)CCC4=C3[C@@H](c3ccc(N(C)C)cc3)C[C@@]21C [RTI-6617-040, 11β-[4-(N,N-Dimethylamino)phenyl]-17α-(1-propynyl)-19-norpregna-4,9-diene-3,20-dione] |  | 1.83 +/− 0.36 | 0.0 +/− 0.0 | 0.0 +/− 0.0 |  | 
CC#CC1(C(C)=O)CCC2C3CCC4=CC(=O)CCC4=C3C(c3ccc(N4CCCCC4)cc3)CC21C (stereo not drawn) [RTI-6617-041, 11β-[4-(N-piperidino)phenyl]-17α-(1-propynyl)-19-norpregna-4,9-diene-3,20-dione] |  | 0.78 +/− 0.21 | 0.0 +/− 0.0 | 0.0 +/− 0.0 | marked effect | markedly more potent
C#CC1(C(C)=O)CCC2C3CCC4=CC(=O)CCC4=C3C(c3ccc(N4CCCCC4)cc3)CC21C (stereo not drawn) [RTI-6617-048, 11β-[4-(N-Piperidino)phenyl]-17α-ethynyl-19-norpregna-4,9-diene-3,20-dione] |  | 1.94 +/− 0.31 | 0.89 +/− 0.3 | 0.0 +/− 0.0 |  | 
